Data: patent US12084420B2, “Indoline compounds for inhibiting KIF18A” (Volastra Therapeutics, Inc., priority 2021, dated 2024)
Like-named read-outs stand apart in the source and are kept apart here.

What was measured:
JIMT-1 cells = experiment: Cell viability of KIF18a-sensitive cell lines, JIMT-1 (Cell Titre-Glo, 7 days); type: cell-based
Method: (§1) Cell Viability of KIF18a-Sensitive Cell Lines
(§2) Cell lines were seeded as follows 24 hours before compound treatment: HCC15 (Korean Cell Line Bank) 600 cell/well, 95 μL of RPMI-1640 media supplemented with 100 units/mL penicillin, 100 units/mL streptomycin and 10% FBS; NIH:OVCAR-3 (ATCC), 1000 cell/well, 95 μL of RPMI-1640 media supplemented with 100 units/mL penicillin, 100 units/mL streptomycin, 0.01 mg/mL bovine insulin, and 20% FBS; JIMT-1 (Addexbio) 1000 cell/well, 95 μL of DMEM media supplemented with 100 units/mL penicillin, 100 units/mL streptomycin, and 10% FBS.
(§3) Test compounds were added to cells in a 20× dilution scheme by adding 5 μL of serially diluted compound to the plate, and the treated cells were incubated for an additional 7 days in a 37° C., 5% CO2 incubator. DMSO was used as the negative control (0% effect), and wells omitting cells were used as the positive control (100% effect). The cells were incubated for seven days, and cell viability determined via the Promega Cell Titre-Glo® Assay kit. Luminescence units were converted to ATP concentrations via an ATP standard curve (10 point, 2-fold dilution from 5 uM). % Inhibition was calculated for each well as: ([max−min]−[test−min])/[max−min]. IC50 values were calculated from concentration vs. % Inhibition data via a four-parameter variable slope model.

HCC15 cells = experiment: Cell viability of KIF18a-sensitive cell lines, HCC15 (Cell Titre-Glo, 7 days); type: cell-based
Method: as §1, §2, §3

hKIF18A (1-374) = hKIF18A (1-374) (Homo sapiens (Human), UniProt Q8NI77); experiment: Inhibition of KIF18A microtubule-dependent ATPase activity (ADP-Glo); details: KIF18A microtubule-dependent ATPase activity, biochemical assay
Sequence of hKIF18A (1-374) (Q8NI77 whole entry, looked up): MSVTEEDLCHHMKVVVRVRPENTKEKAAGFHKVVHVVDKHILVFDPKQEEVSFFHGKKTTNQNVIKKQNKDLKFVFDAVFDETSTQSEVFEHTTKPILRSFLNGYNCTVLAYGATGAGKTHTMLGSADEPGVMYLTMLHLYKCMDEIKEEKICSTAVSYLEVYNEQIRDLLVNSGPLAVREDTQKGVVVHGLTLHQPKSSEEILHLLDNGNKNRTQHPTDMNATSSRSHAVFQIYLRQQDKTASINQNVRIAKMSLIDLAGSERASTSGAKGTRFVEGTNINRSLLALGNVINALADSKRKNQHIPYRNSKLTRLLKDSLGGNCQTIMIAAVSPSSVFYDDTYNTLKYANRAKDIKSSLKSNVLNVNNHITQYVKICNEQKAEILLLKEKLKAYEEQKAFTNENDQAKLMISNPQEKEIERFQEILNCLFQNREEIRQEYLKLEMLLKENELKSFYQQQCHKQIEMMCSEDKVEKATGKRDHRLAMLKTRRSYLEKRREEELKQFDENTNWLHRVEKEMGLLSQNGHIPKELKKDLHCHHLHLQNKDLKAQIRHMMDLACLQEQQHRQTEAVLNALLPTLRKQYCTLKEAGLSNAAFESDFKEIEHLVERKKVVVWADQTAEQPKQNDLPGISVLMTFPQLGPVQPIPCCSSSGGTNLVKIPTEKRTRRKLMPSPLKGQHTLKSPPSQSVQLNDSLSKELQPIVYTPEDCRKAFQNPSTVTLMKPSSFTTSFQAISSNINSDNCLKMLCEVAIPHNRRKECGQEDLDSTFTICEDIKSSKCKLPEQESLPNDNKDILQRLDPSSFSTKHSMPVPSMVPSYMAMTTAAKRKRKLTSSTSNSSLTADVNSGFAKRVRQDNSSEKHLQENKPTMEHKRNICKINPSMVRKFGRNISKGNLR
Sequence of hKIF18A (1-374) (Q2XVP4 whole entry partner, looked up): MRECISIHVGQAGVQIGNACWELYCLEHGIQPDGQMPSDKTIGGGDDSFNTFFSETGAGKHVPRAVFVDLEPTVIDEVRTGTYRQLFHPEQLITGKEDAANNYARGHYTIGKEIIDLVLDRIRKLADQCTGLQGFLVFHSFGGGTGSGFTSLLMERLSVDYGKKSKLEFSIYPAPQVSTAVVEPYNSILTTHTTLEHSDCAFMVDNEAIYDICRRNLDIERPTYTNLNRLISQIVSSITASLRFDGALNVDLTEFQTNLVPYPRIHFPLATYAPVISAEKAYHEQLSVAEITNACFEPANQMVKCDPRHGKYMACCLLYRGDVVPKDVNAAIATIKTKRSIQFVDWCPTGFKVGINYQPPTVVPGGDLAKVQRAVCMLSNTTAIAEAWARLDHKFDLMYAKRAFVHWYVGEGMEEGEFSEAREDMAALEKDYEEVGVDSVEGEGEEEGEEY
Sequence of hKIF18A (1-374) (P02554 whole entry partner, looked up): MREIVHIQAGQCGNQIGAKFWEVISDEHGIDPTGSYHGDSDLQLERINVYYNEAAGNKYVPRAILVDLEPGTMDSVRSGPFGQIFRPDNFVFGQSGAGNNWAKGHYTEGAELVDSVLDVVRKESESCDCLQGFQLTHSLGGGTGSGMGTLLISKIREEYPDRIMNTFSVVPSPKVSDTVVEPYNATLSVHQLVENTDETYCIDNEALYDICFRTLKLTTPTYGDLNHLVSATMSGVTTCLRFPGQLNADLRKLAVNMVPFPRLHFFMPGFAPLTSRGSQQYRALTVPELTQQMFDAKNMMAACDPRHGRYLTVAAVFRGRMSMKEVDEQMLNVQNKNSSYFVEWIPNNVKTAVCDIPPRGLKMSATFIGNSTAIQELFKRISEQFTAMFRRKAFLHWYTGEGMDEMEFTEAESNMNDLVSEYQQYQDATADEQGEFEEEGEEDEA
Method: Biological Assays Inhibition of KIF18A Microtubule-Dependent ATPase Activity:
Test compounds were plated in a 3× dilution scheme in a 384-well plate. Assay buffer: 80 mM PIPES (pH 6.9), 1 mM MgCl2, 75 mM KCl, 1 mM EGTA, 1 mM DTT, 0.01% BSA, 0.005% Tween-20, 1 μM Taxol in H2O. […] After incubation at room temperature for 30 min, 2.5 μL of microtubule mix was added [0.2 mg/mL pre-formed microtubules, 2.0 mM ATP in assay buffer], the plate was centrifuged for 30 s and then incubated at 28° C. for 60 min. 5 μL of Promega® ADP-Glo Max R1 was added, the plate was centrifuged for 30 s, and the mixture incubated for 4 h at room temperature. 10 μL of Promega® ADP-Glo Max R2 was added, the plate centrifuged for 30 s, and incubated for 60 min at room temperature. Luminescence was measured with an Envision plate reader, and % Inhibition was calculated for each well as: ([max−min]−[test−min])/[max−min]. IC50 values were calculated from concentration vs. % Inhibition data via a four-parameter variable slope model.
NIH:OVCAR-3 cells = experiment: Cell viability of KIF18a-sensitive cell lines, NIH:OVCAR-3 (Cell Titre-Glo, 7 days); type: cell-based
Method: as §1, §2, §3

[1] = target: KIF18a-Microtubule Complex (Homo sapiens (Human), UniProt Q8NI77); experiment: Binding kinetics to KIF18a-microtubule complex (global progress curve analysis); details: for koff (off-rate from binding kinetics assay) / kon (on-rate from binding kinetics assay): global progress curve analysis; for Ki: read-out: KI (determined from binding kinetic assay koff/kon), koff/kon; for koff: read-out: koff (off-rate from binding kinetics assay)
Sequence of KIF18a-Microtubule Complex (Q8NI77 whole entry, looked up): as the sequence (Q8NI77 whole entry, looked up) above
Sequence of KIF18a-Microtubule Complex (Q2XVP4 whole entry partner, looked up): as the sequence (Q2XVP4 whole entry partner, looked up) above
Sequence of KIF18a-Microtubule Complex (P02554 whole entry partner, looked up): as the sequence (P02554 whole entry partner, looked up) above
Method in brief: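 kon and koff determined by global progress curve analysis, with ADP formation measured by ADP-Glo. Time- and dose-dependent progress curves were globally fitted to a Michaelis-Menten model with one-step slow-binding inhibition.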

[2] = JIMT-1 cells, 7 days, Cell Titre-Glo, read-out: JIMT-1 IC50
[3] = HCC-15 cells, 7 days, Cell Titre-Glo, read-out: HCC-15 IC50
[4] = NIH-OVCAR3 cells, 7 days, Cell Titre-Glo, read-out: NIH-OVCAR3 IC50
[5] = Homo sapiens, 168 h, JIMT-1 cells, 7 days, Cell Titre-Glo, read-out: JIMT-1 IC50
[6] = HCC15, 168 h, HCC-15 cells, 7 days, Cell Titre-Glo, read-out: HCC-15 IC50
[7] = Homo sapiens, OVCAR-3, 168 h, NIH-OVCAR3 cells, 7 days, Cell Titre-Glo, read-out: NIH-OVCAR3 IC50

SMILES	IC50 (JIMT-1 cells; [2])	IC50 (HCC15 cells; [3])	IC50 (hKIF18A (1-374))	IC50 (NIH:OVCAR-3 cells; [4])	koff (off-rate from binding kinetics assay) [1]	kon (on-rate from binding kinetics assay) [1]	disc. t1/2 (dissociation half-life ln(2)/koff) ([1]; ln(2)/koff)	Ki [1]	IC50 (JIMT-1 cells; Homo sapiens, JIMT-1, 168 h, read-out: IC50, cell viability JIMT-1)	IC50 (HCC15 cells; HCC15, 168 h, read-out: IC50, cell viability HCC-15)	IC50 (NIH:OVCAR-3 cells; Homo sapiens, OVCAR-3, 168 h, read-out: IC50, cell viability NIH: OVCAR3)	dissociation t1/2 ([1]; ln(2)/koff)	IC50 (JIMT-1 cells; [5])	IC50 (HCC15 cells; [6])	IC50 (NIH:OVCAR-3 cells; [7])	koff [1]
CS(=O)(=O)Nc1ccc2c(c1)C1(CCC3(CC3)CC1)CN2C(=O)c1cccc(C(O)C2CCCC2)c1 (single isomer, unassigned) [Compound 165a]	45 nM	68 nM	8.8 nM	59 nM	5e-05 s⁻¹	11900 M⁻¹ s⁻¹	3.8 h	4.2 nM	–	–	–	–	–	–	–	–
CS(=O)(=O)Nc1ccc2c(c1)C1(CCC3(CC3)CC1)CN2C(=O)c1cccc(C(O)C2CCCC2)c1 (single isomer, unassigned) [Compound 165b]	38 nM	46 nM	10 nM	57 nM	4.72e-05 s⁻¹	11900 M⁻¹ s⁻¹	4.2 h	3.9 nM	–	–	–	–	–	–	–	–
CS(=O)(=O)Nc1ccc2c(c1)C1(CCC3(CC3)CC1)CN2C(=O)c1cccc([C@@H](O)CC2CCC2)c1 (single isomer, unassigned) [Compound 305a]	52 nM	74 nM	8.1 nM	90 nM	0.000361 s⁻¹	97200 M⁻¹ s⁻¹	0.56 h	3.5 nM	–	–	–	–	–	–	–	–
CS(=O)(=O)Nc1ccc2c(c1)C1(CCC3(CC3)CC1)CN2C(=O)c1cccc([C@H](O)CC2CCC2)c1 (single isomer, unassigned) [Compound 305b]	40 nM	60 nM	6.8 nM	69 nM	0.000389 s⁻¹	106000 M⁻¹ s⁻¹	0.49 h	3.7 nM	–	–	–	–	–	–	–	–
Cc1cc(NC(=O)c2ccc(NS(=O)(=O)CCO)cc2N2CCC3(CC2)CC3)nc(N2CCC(F)(F)CC2)n1 [AMG650, 2-{6-azaspiro[2.5]octan-6-yl}-N-[2-(4,4-difluoropiperidin-1-yl)-6-methylpyrimidin-4-yl]-4-(2-hydroxyethanesulfonamido)benzamide, reference compound]	–	–	–	–	–	–	–	–	130 nM	66 nM	100 nM	4.1 h	–	–	–	–
CC(C)(C)NS(=O)(=O)c1cc(C(=O)N2CC3(CCC4(CC4)CC3)c3cc(NS(C)(=O)=O)ccc32)ccc1F [Compound 159, N-(tert-butyl)-2-fluoro-5-(5″- (methylsulfonamido)dispiro[cyclopropane-1,1′-cyclohexane-4′,3″-indoline]-1″-carbonyl)benzenesulfonamide]	–	–	19 nM	–	–	7220 M⁻¹ s⁻¹	32 h	0.83 nM	–	–	–	–	15 nM	21 nM	22 nM	6.11e-06 s⁻¹
CC(C)(C)NS(=O)(=O)c1cccc(C(=O)N2CC3(CCC4(CC4)CC3)c3cc(NS(=O)(=O)C4CC4)ccc32)c1 [Compound 160, N-(tert-butyl)-3-(5″- (cyclopropanesulfonamido)dispiro [cyclopropane-1,1′-cyclohexane-4′,3″- indoline]-1″- carbonyl)benzenesulfonamide]	–	–	20 nM	–	–	10600 M⁻¹ s⁻¹	33 h	0.54 nM	–	–	–	–	5.4 nM	7.5 nM	8 nM	5.83e-06 s⁻¹
CS(=O)(=O)Nc1ccc2c(c1)C1(CCC3(CC3)CC1)CN2C(=O)c1cccc(S(=O)(=O)NC2CC(F)(F)C2)c1 [Compound 192, N-(3,3-difluorocyclobutyl)-3-(5″- (methylsulfonamido)dispiro[cyclopropane-1,1′-cyclohexane-4′,3″-indoline]-1″-carbonyl)benzenesulfonamide]	–	–	10 nM	–	–	14400 M⁻¹ s⁻¹	21 h	0.64 nM	–	–	–	–	500 nM	510 nM	410 nM	9.17e-06 s⁻¹
CS(=O)(=O)Nc1ccc2c(c1)C1(CCC3(CC3)CC1)CN2C(=O)c1cccc(S(=O)(=O)NC23CC(C2)C3)c1 [Compound 223, N-(bicyclo[1.1.1]pentan-1-yl)-3-(5″-(methylsulfonamido)dispiro[cyclopropane-1,1′-cyclohexane-4′,3″-indoline]-1″-carbonyl)benzenesulfonamide]	–	–	6.7 nM	–	–	6390 M⁻¹ s⁻¹	7.9 h	0.26 nM	–	–	–	–	15 nM	21 nM	20 nM	2.44e-05 s⁻¹
O=C(c1cccc(S(=O)(=O)C2CCCC2)c1)N1CC2(CCC3(CC3)CC2)c2cc(NS(=O)(=O)CCO)ccc21 [Compound 229, N-(1″-(3-(cyclopentylsulfonyl)benzoyl)dispiro [cyclopropane-1,1′-cyclohexane-4′,3″- indolin]-5″-yl)-2-hydroxyethane-1-sulfonamide]	–	–	6.2 nM	–	–	16900 M⁻¹ s⁻¹	39 h	0.29 nM	–	–	–	–	11 nM	11 nM	13 nM	5e-06 s⁻¹
CS(=O)(=O)Nc1ccc2c(c1)C1(CCC3(CC3)CC1)CN2C(=O)c1cccc(S(=O)(=O)N2CC(F)(F)C2)c1 [Compound 257, N-(1″-(3-((3,3-difluoroazetidin-1-yl)sulfonyl)benzoyl)dispiro[cyclopropane-1,1′-cyclohexane-4′,3″-indolin]-5″- yl)methanesulfonamide]	–	–	8.3 nM	–	–	18300 M⁻¹ s⁻¹	10 h	0.96 nM	–	–	–	–	12 nM	21 nM	21 nM	1.86e-05 s⁻¹
COc1ccc(C(=O)N2CC3(CCC4(CC4)CC3)c3cc(NS(C)(=O)=O)ccc32)cc1S(=O)(=O)NC(C)(C)C [Compound 297, N-(tert-butyl)-2-methoxy-5-(5″-(methylsulfonamido)dispiro[cyclopropane-1,1′-cyclohexane-4′,3″-indoline]-1″-carbonyl)benzenesulfonamide]	–	–	17 nM	–	–	10300 M⁻¹ s⁻¹	49 h	0.38 nM	–	–	–	–	9.8 nM	11 nM	10 nM	3.89e-06 s⁻¹
CCS(=O)(=O)Nc1ccc2c(c1)C1(CCC3(CC3)CC1)CN2C(=O)c1cccc(S(=O)(=O)N2CC3(CCO3)C2)c1 [Compound 320, N-(1″-(3-((1-oxa-6-azaspiro[3.3]heptan-6-yl)sulfonyl)benzoyl)dispiro[cyclopropane-1,1′-cyclohexane-4′,3″-indolin]-5″- yl)ethanesulfonamide]	–	–	18 nM	–	–	7500 M⁻¹ s⁻¹	45 h	0.57 nM	–	–	–	–	14 nM	21 nM	20 nM	4.17e-06 s⁻¹
CC(C)(C)S(=O)(=O)Nc1cccc(C(=O)N2CC3(CCC4(CC4)CC3)c3cc(NS(C)(=O)=O)ccc32)c1 [Compound 355, 2-methyl-N-(3-(5″-(methylsulfonamido)dispiro[cyclopropane-1,1′-cyclohexane-4′,3″-indoline]-1″-carbonyl)phenyl)propane-2-sulfonamide]	–	–	25 nM	–	–	–	–	–	–	–	–	–	120 nM	94 nM	110 nM	–
